The source of these data is patent publication US20150218516A1, “COMPOSITIONS AND METHODS FOR ENHANCING IMMUNE RESPONSES MEDIATED BY ANTIGEN-PRESENTING CELLS” (The Board of Regents of the University of Nebraska, priority 2007, published 2015).

As usually defined, the EC50 is the midpoint of the concentration-response curve. Lower therefore signals higher potency in that assay.

The test system of series [1] is BEAS-2B epithelial cells. How it is done:
(§1) An exemplary in vitro cytotoxicity assay comprises the following steps. Antigen presenting cells, such as dendritic cells, were obtained from bone marrow or blood. Dendritic cells were preferentially differentiated in culture through the addition of IL-4, GM-CSF, and TNFα for 7-10 days. Dendritic cells were then pulsed with peptides for 18 hours. MNCs were also isolated from spleens or blood (e.g., cord or peripheral) and cultured in IL-2 and GM-CSF for 7-10 days for enhanced lymphocyte proliferation. The pulsed dendritic cells were then co-cultured with the lymphocyte-enriched MNCs at a 1:10 ratio for 4 days. Lymphocyte-enriched MNC effector cells were then co-cultured with tumor target cells labeled with the bioactive fluorescent dye Calcein AM for 4 hours. Lysed cells were detected by photometrically measuring the released fluorescent dye.
(§2) Certain prostate carcinomas express prostate-specific membrane antigen (PSMA). […] The fusion peptides were administered to APCs which were subsequently presented to a lymphocyte-enriched population from cord blood as described hereinabove in Example 6. After antigen presentation by pulsed DC in co-culture, CTLs were tested for their ability to lyse three different target cell monolayers in an in vitro cytotoxicity assay. […] The fusion peptides were also administered to APCs which were subsequently presented to a adult peripheral blood-derived CTLs. In vitro cytotoxicity against the human prostate cancer cell line LNCaP was then assessed using the bioactive fluorescent dye calcein AM (FIG. 11D).

Series [2] relates to LNCaP cells. The procedure:
as §1, §2

Series [3] relates to A-375 cell line (melanoma). The format is cell-based, human. How it is done:
(§3) The tumor peptide antigen tyrosinase is expressed on more than 70% of human melanoma cells that are human leukocyte antigen (HLA) A2 positive. […] The dendritic cells, presumably expressing the tyrosinase epitope, were then cultured with a lymphocyte-enriched cell population which was then cultured with melanoma cells to determine melanoma cell killing using a cytotoxic T lymphocyte assay.

Series [4] concerns human umbilical artery. Put plainly: Smooth muscle contraction of human umbilical artery. The format is cell-based. The procedure:
(§4) Statistical analysis of the values obtained from pharmacologic assays was performed using one-way analysis of variance (ANOVA).

The test system of series [5] is immunizing peptide and free peptides. In words: ELISA of sera from mice immunized with HBsAg CTL epitope-C5a agonist constructs. The format is in vivo. The settings on record: sera after three injections. The procedure: (§5) Groups of six to eight BALB/c mice were given bilateral s.c. injections in the inguinal area with (100 al each side) of a PBS solution containing 50-100 μg of the peptides. Booster injections were given s.c. in the inguinal region at 21-day intervals. Sera for Ab analysis were obtained by retro-orbital bleeds of mice under CO2 narcosis.
Thus, it was of interest to determine whether sera from mice immunized with the control peptides and epitope-C5a agonist constructs contained Ab directed against any of the peptides. […] (SEQ ID NO:12), […]

For series [6], the system named is P815S (HBsAg transfectant) target cells. Put plainly: HBsAg-specific CTL response of immunized mice, 51Cr-release cytotoxicity assay. The class given is in vivo, BALB/c mice. Conditions: for % Specific Lysis: s.c. in PBS. How it is done: as §5
Three weeks after secondary) (2° immunization and two weeks after tertiary)(3° immunization, two to three mice from each experimental group were sacrificed by cervical dislocation and their spleens removed aseptically. Pooled splenic single-cell suspensions were prepared in RPMI-1640 medium (Sigma, St. Louis, Mo.) containing 10% FBS (Hyclone, Salt Lake City, Utah) and the following supplements: 10 mM HEPES buffer, 50 μM 2-ME, 2 mM L-glutamine, 50 μg/ml gentamicin sulfate, 100 Um′ penicillin, and 50 μg/ml streptomycin (all supplements from Sigma). This supplemented complete medium is designated RP10-SC. For culture, 75×10^6 pooled spleen cells in 5 ml of RP10-SC were pipetted into a 25 cm^2 T-flask (Corning). Next, 5 ml of RP 10-SC containing 150 nM of synthetic, L^d MHC class I-restricted peptide, […] (SEQ ID NO:12) were added to the flask. The flasks were incubated undisturbed in an upright position at 37° C. in 5% CO2. After 4 days of incubation, the cells were recovered from the T-flasks, washed once by centrifugation in fresh RP10-SC, resuspended in 5 ml RP10-SC, counted, and adjusted to 5×10^6 viable cells/ml.
The specific cell target used for measuring CTL activity was P815S, a transfectant cell line of P815 (H-2^d) expressing the HBsAg (14). P815S was grown in RP10-SC medium containing 400 μg/ml geneticin disulfate (G418, Sigma). The parental H-2^d mastocytoma cell line, P815 (ATTC #TIB64) grown in RP10-SC medium, was used as a non-specific target for CTL assays to measure % non-specific lysis.
The target cells, either P815S or P815, were washed 2 times in RP10-SC. For labeling, 5×10^6 target cells were mixed with 250 μCi ^51Cr-sodium chromate[400-1200 Ci (14.8-44.4 TBq)]/[…]; NEN Dupont, Boston, Mass.) in a 1.0 ml volume in a 50 ml conical tube and incubated in a 37° C. water bath for 90 mins. After incubation, the labeled cells were washed 3 times by centrifugation using 15 ml volumes of fresh RP10-SC and allowed to stand at room temperature for 30 mins. The pelleted cells were resuspended in RP10-SC at 1×10^6 cells/ml.
The recovered splenic effector cells at 5×10^6 cells/ml were serially diluted in triplicate in wells of round-bottom 96 well plates (Corning, 25850) in a total volume of 100 al/well and using RP10-SC as the diluent. Next, 100 μl volumes of ^51Cr-labeled targets, P815S or P815, at 1×10^6 cells/ml were added to the wells. Maximum release (MR) wells contained 100 al of target cells and 100 al of 2% (v/v) Tween 20 while spontaneous release (SR) wells contained labeled cells in medium alone. Effector-to-target ratios of 50:1, 25:1, 12.5:1, and 6.25:1 were routinely employed. The plates were centrifuged at 400×g and incubated at 37° C. in 5% CO2 for 4 hrs. After incubation, the supernatant fractions in the wells were collected using a Skatron Supernatant Collection System (Skatron Instruments, Sterlin, Va.). The amount of ^51Cr radioactivity in the supernatant fractions was measured using a Wallac 1470 Wizard gamma counter (Turku, Finland).

For series [7], the system named is human PMNs. Put plainly: MPO release from human PMNs. The format is cell-based. The procedure:
as §4

In series [8] the test system is SKmel-28. Put plainly: In vitro cytotoxicity of T lymphocytes cultured with peptide-pulsed dendritic cells against SKmel-28. The format is cell-based, human. Conditions: UCB or PBMC derived T lymphocytes cultured with dendritic cells exposed to the peptide. How it is done:
as §3

Series [9] relates to SKRC-1. The settings on record: low G250 expression; cord blood T lymphocytes. How it is done:
as §1
(§6) Certain renal cell carcinomas express the tumor antigen G250. […] The fusion peptide was administered to APCs which were subsequently presented for 4 days to a lymphocyte-enriched population from cord blood as described hereinabove in Example 6.

Series [10] relates to SKRC-52. The settings on record: cord blood T lymphocytes, dendritic cells exposed to the peptide. How it is done:
as §1, §6

Series [11] has as its system Caki-1 cells. Put plainly: In vitro cytotoxicity of T lymphocytes cultured with peptide-pulsed dendritic cells against Caki-1. The format is cell-based, human. The settings on record: cord blood-derived T lymphocytes cultured with dendritic cells exposed to the peptide.

Entries after “also recorded” stand apart in the source; their conditions may differ. Non-standard residues stand in square brackets, D forms with d. Residues, ends and D or L forms follow the SMILES beside them.

Turning to `CC(C)C[C@H](NC(=O)[C@@H](N)CC(C)C)C(=O)N[C@@H](Cc1c[nH]cn1)C(=O)N[C@@H](CCC(=O)O)C(=O)N[C@H](C(=O)N[C@@H](CC(=O)O)C(=O)N[C@@H](CO)C(=O)N[C@@H](C)C(=O)N[C@H](C(=O)O)C(C)C)[C@@H](C)O` [PSMA p1], the “cytotoxicity against BEAS-2B (in words)” value in series [1] is recorded as “not cytotoxic”. In addition, in series [2], the “cytotoxicity against LNCaP (in words)” value is listed as “did not exhibit significant cytotoxicity”. The “cytotoxicity against A-375 (in words)” value in [3] is recorded as “not cytotoxic”.
Take `CC[C@H](C)[C@H](N)C(=O)N1CCC[C@H]1C(=O)N[C@@H](CCC(N)=O)C(=O)N[C@@H](CO)C(=O)N[C@@H](CC(C)C)C(=O)N[C@@H](CC(=O)O)C(=O)N[C@@H](CO)C(=O)N[C@@H](Cc1c[nH]c2ccccc12)C(=O)N[C@@H](Cc1c[nH]c2ccccc12)C(=O)N[C@H](C(=O)N[C@@H](CO)C(=O)N[C@@H](CC(C)C)C(=O)N[C@@H](CCCNC(=N)N)C(=O)N[C@@H](CCCNC(=N)N)C(=O)N[C@@H](Cc1ccc(O)cc1)C(=O)N[C@@H](CO)C(=O)N[C@@H](Cc1ccccc1)C(=O)N[C@@H](CCCCN)C(=O)N1CCC[C@H]1C(=O)N[C@@H](CCSC)C(=O)N1CCC[C@H]1C(=O)N[C@@H](CC(C)C)C(=O)N[C@H](C)C(=O)N[C@@H](CCCNC(=N)N)C(=O)O)[C@@H](C)O` (H-IPQSLDSWWTSLRRYSFKPMPL[dA]R-OH): the results for the EC50 in [4] (concentration resulting in 50% maximum contraction) and in series [7] (50% maximum release of myeloperoxidase) were 161 nM and 540 nM, respectively. The “agonist behaviour relative to natural C5a (in words)” value in series [4] (umbilical artery contraction and MPO release assays) is “full agonists”. Also, the “pD2 ± SE” value stood at 6.79 ± 0.31 in series [4] (−log EC50 (M), mean ± SE, n=3) and 6.27 ± 0.29 in series [7] (−log EC50 (M), mean ± SE, n=3). For the same compound, the “serum binding to free peptides […] or YSFKPMPLaR” value in series [5] is “did not bind”. The “% Specific Lysis” value in [6] (Effector:Target 6.25:1, boost day 21, spleen cells day 42) amounted to 9%; in [6] (Effector:Target 12.5:1, boost day 21, spleen cells day 42), 14%; in [6] (Effector:Target 25:1, boost day 21, spleen cells day 42) it was 23%; in series [6] (Effector:Target 50:1, boost day 21, spleen cells day 42, restimulated 4 days with S28-39), 32%. The “Ag-specific CTL response (in words)” value in series [6] (two or three s.c. injections at 21 day intervals, no added adjuvant) is “significant CTL response; also recorded: generated an Ag-specific CTL response; also recorded: robust CTL activity”.
For `CC[C@H](C)[C@H](NC(=O)[C@H](CC(=O)O)NC(=O)[C@H](Cc1ccccc1)NC(=O)[C@H](CC(C)C)NC(=O)[C@H](C)N)C(=O)N[C@@H](CCC(=O)O)C(=O)N[C@@H](CO)C(=O)N[C@@H](CCCCN)C(=O)N[C@H](C(=O)O)C(C)C` [PSMA p2], the “cytotoxicity against BEAS-2B (in words)” value in series [1] is “not cytotoxic”. In series [2], the “cytotoxicity against LNCaP (in words)” value was “did not exhibit significant cytotoxicity”. Besides, the “cytotoxicity against A-375 (in words)” value in series [3] is given as “not cytotoxic”.
YMNGTMSQV [tyrosinase antigen]: the “cytotoxicity against SKmel-28 (in words)” value in series [8] was “minimal cytotoxicity”. Besides, in series [2], the “cytotoxicity against LNCaP (in words)” value was “did not exhibit significant cytotoxicity”. Moreover, in series [3], the “cytotoxicity against A-375 (in words)” value is listed as “minimal cytotoxicity”.
Turning to `CSCC[C@H](NC(=O)[C@@H]1CCCN1C(=O)[C@H](CCCCN)NC(=O)[C@H](Cc1ccccc1)NC(=O)[C@H](CO)NC(=O)[C@H](Cc1ccc(O)cc1)NC(=O)[C@@H](NC(=O)[C@H](CCCNC(=N)N)NC(=O)[C@H](C)NC(=O)[C@H](Cc1ccccc1)NC(=O)[C@H](C)NC(=O)[C@@H](NC(=O)[C@H](CO)NC(=O)[C@H](CC(C)C)NC(=O)[C@@H](N)Cc1c[nH]cn1)[C@@H](C)O)C(C)C)C(=O)N1CCC[C@H]1C(=O)N[C@@H](CC(C)C)C(=O)N[C@H](C)C(=O)N[C@@H](CCCNC(=N)N)C(=O)O` (H-HLSTAFARVYSFKPMPL[dA]R-OH), in series [9], the “cytotoxicity against SKRC-1 (in words)” value is “exhibited cytotoxicity”. For the same compound, the “cytotoxicity against SKRC-52 (in words)” value in series [10] is reported as “significant cytotoxicity”.
`CSCC[C@H](NC(=O)[C@H](CC(=O)O)NC(=O)[C@H](CCCCN)NC(=O)[C@H](Cc1ccccc1)NC(=O)[C@H](CO)NC(=O)[C@@H](N)Cc1ccc(O)cc1)C(=O)N1CCC[C@H]1C(=O)N(C)[C@@H](CC(C)C)C(=O)N[C@H](C)C(=O)N[C@@H](CCCNC(=N)N)C(=O)O` [YSFKDMP(MeL)aR]: in [11], the “cytotoxicity against tyrosinase-negative Caki-1 (in words)” value was “incapable of killing”.
